Test results: patent publication EP1379135B1, “FORMULATIONS COMPRISING ENTRAPPED ACTIVE INGREDIENTS AND USES THEREOF” (THE SCRIPPS RESEARCH INSTITUTE, priority 2001, dated 2002)
Entries after “also recorded” stand apart in the source; their conditions may differ. Like-named read-outs stand apart in the source and are kept apart here.

Experiments:
iNOS mRNA = iNOS mRNA expression (Northern Blot); format: cell-based, human
Experimental: (§1) Total RNA was isolated from 2 x 10^6 chondrocytes stimulated using the STAT-60 reagent (Tel-Test, Friendswood, TX). RNA for each sample was quantified photometrically, and 5 µg was separated on 1.2% agarose, 6% formaldehyde gels. After electrophoresis, the gels were photographed, and the RNA was transferred onto HybondN nylon membranes (BRL, Baithesburg, MD) by capillary blotting. Membranes were air-dried and incubated for 2 hrs at 80°C. Prehybridization was done for 2 hrs at 60°C in 5 x SCC, 1 mM EDTA, 0.2% SDS and 5 x Denhardt solution. Radio-labeled probe was added and hybridization was carried out overnight at 60°C. After hybridization, the filters were rinsed twice in 2 x SSC, 0.1% SDS, washed once in 2 x SCC, 0.1 % SDS at 60°C and once in 0.2 x SCC, 0.1 % SDS at 60°C. The membranes were covered with plastic wrap and exposed with an intensifying screen for 12 hr at -70°C. The probes used for the hybridization were prepared as described earlier (Geng et al., (1993) J. Immunol. 151:6692; Geller et al., (1993) Proc. Natl. Acad. Sci. USA 90:3491).

COX-2 mRNA = COX-2 mRNA expression in IL-1β stimulated chondrocytes (Northern Blot); format: cell-based, human
Experimental: as §1

[1] = system: IL-1β induced NO production in normal human articular chondrocytes; assay: IL-1β induced NO production in cultured chondrocytes (NO2 accumulation, Griess reaction); format: cell-based
Experimental: Chondrocytes were isolated from the cartilage by collagenase digestion and maintained in continuous monolayer cultures in DMEM containing 10% fetal bovine serum (FBS). Cell viability after chondrocyte isolation by collagenase digestion of normal cartilage was >95%. This level was maintained for at least 96 hrs post mortem. […] Experiments reported were performed with primary or first passage cells.
Chondrocytes were plated at 40,000 cells/well in 96-well plates in the presence of 1 % FBS. After 48 h, the medium was changed, and the cells were stimulated with IL-1β (Sigma) at a concentration of 5 ng/ml for 24 h. NO production was detected as NO2 accumulation in the culture supernatants by the Griess reaction as described elsewhere (Heval et al., (1994) Methods Enzymol. 233:250). IL-6 in the culture supernatants was measured by ELISA (R&D Systems, Minneapolis, MN) in accordance with the supplier's protocol.

[2] = In vivo retention of GlcNAc in knee joints after intra-articular administration; design: species or system Wistar rats
Experimental: 50 µl of GlcNAc solution (unlabeled 2.69 mg/ml, labeled 5 µCi/ml, unlabeled:labeled molecule 10,000:1) was injected into knee joint of six rats. These rats (2 animals/time point) were sacrificed at 0, 30 min, and 2 hr after administration of a GlcNAc solution. Two other two rats were injected with normal saline as negative controls. All joints were removed and homogenized with 5 ml of normal saline at 16,000 rpm for about 30 sec. 100 µl of the tissue homogenate was added to 500 µl tissue solubilizer. The solution was incubated at 50 °C for 16 hrs, mixed with 30 µl of glacial acetic acid and 5 ml of liquid scintillation cocktail. The [^3H]GlcNAc activity was measured by a liquid scintillation counter.
Fourteen rats were used for each liposomal formulation. 50 µl of liposome (prepared as disclosed herein, 1.13 µCi/ml, GlcNAc concentration was 0.61 mg/ml, unlabeled:labeled molecule 10,000:1) was injected into each knee joint in twelve rats. Another two rats were injected with 50 µl of normal saline as negative controls. Animals (2 rats/time point) were sacrificed at time points corresponding to 0, 1, 3, 7, 14, 21, and 28 days after administration of GlcNAc. The knee joints were removed and [^3H]GlcNAc activity was determined as disclosed herein.

COX-1 protein = COX-1 protein expression in chondrocytes (Western Immunoblot); format: cell-based, human
Experimental: (§2) Whole cell extracts were prepared from 3 x 10^6 chondrocytes stimulated as described above by lysing the cells on the plate with ice cold lysis buffer (10 mM TrisHCl pH 7.6, 158 mM NaCl, 1 mM EDTA, 0.1% SDS, 1% Triton X-100, leupeptin […], aprotinin 1µg/ml, and 0.5 mM PMSF), which was added immediately before use. The lysates were transferred to Eppendorf tubes and centrifuged at 20,000 g for 30 min at 4 °C. The supernatants were transferred into fresh tubes, and the protein concentration was determined by Bradford assay. Similar amounts of protein were separated by 10% SDS PAGE and transferred to a nitrocellulose filter (Schleicher & Schuell, Keene, NH) by electroblotting. The filter was blocked overnight in 5% milk powder/TBS-T solution and then further incubated with one of the following antibodies: anti-iNOS (C-19, Santa Cruz Biotechnology, Inc., Santa Cruz, CA), anti-COX-2 (Cayman Chemical, Ann Arbor, MI), anti-COX-1 (H-3, Santa Cruz Biotechnology, Inc.), anti-phospho-JNK (phosphoThr 183 /Tyr 185, New England Biolabs, Inc., Beverly, MA), anti-phospho-p38MAP (phospho-Thr […]/Tyr 182, New England Biolabs, Inc.) or anti-phospho-ERK (phosphoThr 180/Tyr 182, New England Biolabs, Inc.) for 2 hrs. […]

iNOS protein = iNOS protein expression (Western Immunoblot); format: cell-based, human
Experimental: as §2

## CC(=O)N[C@H]1C(O)O[C@H](CO)[C@@H](O)[C@@H]1O (stereo partly shown) [GlcNAc, N-acetylglucosamine]
iNOS mRNA
  expression of iNOS mRNA: strongly inhibited
COX-2 mRNA
  expression of COX-2 mRNA: inhibited
[1]
  NO production triggered by IL-1β: suppressed NO production; also recorded: stronger inhibition of NO production than GA
  concentration of maximal inhibitory effect on NO production: 20 mM
  concentrations not effective in inhibiting NO production: lower than 1 mM
[1]; Homo sapiens, Chondrocyte, IL-1β 5 ng/ml for 24 h, GlcNAc vs GA p < 0.01, read-out: IC50 (inhibition of NO production)
  IC50: 4.1 ± 1.3 mM
[1]; concentration of 10 mM
  inhibitory activity on IL-1β induced NO production: demonstrated inhibitory activity
[1]; listed as GIcNAc
  NO production triggered by IL-1β: measurably inhibited NO production in the lower millimolar range
  concentrations not effective in inhibiting NO production: below 1 mM
[2]; Wistar, rat, knee joint homogenate, 0.1345 mg per knee joint, single intra-articular administration, saline solution
  half-life: 4.1 min
[2]; after intra-articular administration
  GlcNAc retention at the rat knee joints: moved out of the rat joint rapidly
COX-1 protein
  expression of the constitutively expressed COX-1 protein: did not affect
iNOS protein
  expression of iNOS protein: strongly inhibited
